Assay results published in US9624247B2, “Pyrazolo-pyrrolidin-4-one derivatives as bet inhibitors and their use in the treatment of disease” (NOVARTIS AG, priority 2013, dated 2017).

Assays:
[1] = target: CREBBP bromodomain (His-CREBBP(1081-1197)) (Homo sapiens (Human), UniProt Q92793); assay: AlphaScreen in-vitro binding assay for CREBBP; conditions: AlphaScreen, acetyl-histone H4 peptide; read-out: CREBBP IC50
K-562 cells = assay: Cell growth inhibition assay (CellTiter-Glo), K-562; type: cell-based, human; conditions: K-562, 4 days; for GI50: Homo sapiens, K562, 96 h, half-maximal growth inhibition; for K-562 TGI: total growth inhibition
Procedure, shortened: (§1)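 Leukemia cells were exposed for 4 days at 37 °C to 3-fold dilution series from 10 μM (0.1% DMSO), then viable cells were quantified by CellTiter-Glo ATP luminescence. Signal was corrected for background and a day-0 plate, with vehicle set at 100% and medium-only at −100%. IC50 and TGI were obtained by four-parameter fit.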

[2] = target: nuclear BRD4-NUT foci in HCC2494 NUT midline carcinoma cells (Homo sapiens (Human), UniProt O60885+Q86Y26); assay: Nut-foci formation assay (HCS); type: cell-based; conditions: 24 hours, NUT-foci immunofluorescence
Method: HCC2494 NUT midline carcinoma cells (expressing BRD4-NUT-fusion) were obtained from the University of Texas Southwestern and cultured in RPMI-1640 medium containing 10% Foetal Calf Serum at 37° C. in a humidified 5% CO2 incubator.
Compound-mediated inhibition of BRD4 activity was monitored by quantification of the number and intensity of nuclear BRD4-NUT foci using automated immunofluorescence microscopy. Briefly, 5000 cells in 20 μl fresh medium were seeded into Poly-D-Lysine-precoated 384-well plates and incubated overnight at 37° C. and 5% CO2, followed by addition of 5 μl medium containing compound dilutions at 5-fold their final intended concentration. Dose-response effects were assessed by 3-fold serial dilutions of the test compound, starting at 10 μM. Following incubation of the cells for 24 hours at 37° C. and 5% CO2, the cells were fixed by incubation with 3.7% formaldehyde for 10 min, followed by immunofluorescence staining using rabbit anti-NUT (Cell Signaling Technologies, Cat#3625) as primary, and AlexaFluor488-labeled goat anti-rabbit (Invitrogen, Cat#A11008) as secondary antibody (latter complemented with 1 μg/mL Hoechst33342 as DNA dye). Assay plates were imaged using the appropriate filter sets on the Cellomics VTi automated fluorescence microscopy platform (ThermoFisher Scientific) and the population average of the number of NUT-foci per nucleus is quantified using the Cellomics Spot Detection BioApplication image analysis algorithm (ThermoFisher Scientific). The effect of a particular test compound concentration on NUT-foci number and intensity is expressed as percentage of the value obtained for cells treated with vehicle only (DMSO, 0.1% final concentration), which was set as 100. Compound concentrations leading to half-maximal (IC50) inhibition of the aforementioned readout parameters were determined using standard four parameter curve fitting.

THP-1 cells = assay: Cell growth inhibition assay (CellTiter-Glo), THP-1; type: cell-based, human; conditions: THP-1, 4 days; for GI50: Homo sapiens, 96 h, half-maximal growth inhibition; for THP-1 TGI: total growth inhibition
Procedure, shortened: as §1

Chain of CREBBP bromodomain (His-CREBBP(1081-1197)) (Q92793 1081-1197): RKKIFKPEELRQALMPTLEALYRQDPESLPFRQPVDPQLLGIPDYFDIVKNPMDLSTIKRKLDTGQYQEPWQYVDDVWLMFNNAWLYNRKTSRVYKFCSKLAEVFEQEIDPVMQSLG

Structure (SMILES)	IC50 [1] [µM]	GI50 (K-562 cells) [nM]	K-562 TGI (K-562 cells) [µM]	IC50 [2] [nM]	GI50 (THP-1 cells) [nM]	THP-1 TGI (THP-1 cells) [µM]
COCCn1nc(C2CC2)c2c1C(c1ccc(Cl)cc1)N(c1cc(C)c3nnc(C)n3c1)C2=O (racemic) [Example 4, 6-(4-chlorophenyl)-3-cyclopropyl-5-(3,8-dimethyl-[1,2,4]triazolo[4,3-a]pyridin-6-yl)-1-(2-methoxyethyl)-5,6-dihydropyrrolo[3,4-c]pyrazol-4(1H)-one]	7.3	56.8	>10	9.04	11.9	0.02795
Cc1nnc2c(NC(=O)OC(C)(C)C)cc(N3C(=O)c4c(C5CC5)nn(C)c4C3c3ccc(Cl)cc3)cn12 (centres unmarked) [Example 27, tert-butyl (6-(6-(4-chlorophenyl)-3-cyclopropyl-1-methyl-4-oxopyrrolo[3,4-c]pyrazol-5(1H,4H,6H)-yl)-3-methyl-[1,2,4]triazolo[4,3-a]pyridin-8-yl)carbamate]	8.1	164	>10	22.4	22.8	0.04465
COc1cc(N2C(=O)c3c(C4CC4)nn(C)c3C2c2ccc(Cl)cc2)cc2c1nnn2C (centres unmarked) [Example 6]	21.6	204	>10	54.8	63	0.1181
Cc1cc(N2C(=O)c3c(C4CC4)nn(C)c3[C@H]2c2ccc(Cl)cc2)cn2c(C(F)F)nnc12 [Example 7, (R)-6-(4-chlorophenyl)-3-cyclopropyl-5-(3-(difluoromethyl)-8-methyl-[1,2,4]triazolo-[4,3-a]pyridin-6-yl)-1-methyl-5,6-dihydropyrrolo[3,4-c]pyrazol-4(1H)-one]	> 37	46.3	>10	2.14	5.65	0.0148
CCOC(=O)Nc1cc(N2C(=O)c3c(C4CC4)nn(C)c3C2c2ccc(Cl)cc2)cn2c(C)nnc12 (centres unmarked) [Example 29, ethyl (6-(6-(4-chlorophenyl)-3-cyclopropyl-1-methyl-4-oxopyrrolo[3,4-c]pyrazol-5-(1H,4H,6H)-yl)-3-methyl-[1,2,4]triazolo[4,3-a]pyridin-8-yl)carbamate]	–	23.6	>10	2.2	2.59	0.00762
Cc1cc(N2C(=O)c3c(C4CC4)nn(C)c3[C@H]2c2ccc(Cl)cc2)cn2c(C)nnc12 [Example 2, (R)-6-(4-chlorophenyl)-3-cyclopropyl-5-(3,8-dimethyl-[1,2,4]triazolo[4,3-a]pyridin-6-yl)-1-methyl-5,6-dihydropyrrolo[3,4-c]pyrazol-4(1H)-one]	6	29.2	>10	4.71	6.37	0.01495
COCCn1nc(C2CC2)c2c1C(c1ccc(Cl)cc1)N(c1cc(C)c3nnc(CF)n3c1)C2=O (centres unmarked) [Example 18, 6-(4-chlorophenyl)-3-cyclopropyl-5-(3-(fluoromethyl)-8-methyl-[1,2,4]triazolo[4,3-a]-pyridin-6-yl)-1-(2-methoxyethyl)-5,6-dihydropyrrolo[3,4-c]pyrazol-4(1H)-one]	> 37	139	>10	3.65	19.2	0.04645
Cc1cc(N2C(=O)c3c(C4CC4)nn(C)c3C2c2ccc(Cl)cc2)cn2c(CF)nnc12 (racemic) [Example 16, 6-(4-chlorophenyl)-3-cyclopropyl-5-(3-(fluoromethyl)-8-methyl-[1,2,4]triazolo[4,3-a]-pyridin-6-yl)-1-methyl-5,6-dihydropyrrolo[3,4-c]pyrazol-4(1H)-one]	> 37	122	>10	12.1	18.7	0.0516
Cc1cc(N2C(=O)c3c(C4CC4)nn(C)c3C2c2ccc(Cl)cc2)cn2c(C)nnc12 (centres unmarked) [Example 1, 6-(4-chlorophenyl)-3-cyclopropyl-5-(3,8-dimethyl-[1,2,4]triazolo[4,3-a]pyridin-6-yl)-1-methyl-5,6-dihydropyrrolo[3,4-c]pyrazol-4(1H)-one]	11.4	51.9	>10	16.2	9.6	0.0204
COc1cc(N2C(=O)c3c(C4CC4)nn(C)c3C2c2ccc(Cl)cc2)cn2c(C)nnc12 (racemic) [Example 5, 6-(4-chlorophenyl)-3-cyclopropyl-5-(8-methoxy-3-methyl-[1,2,4]triazolo[4,3-a]pyridin-6-yl)-1-methyl-5,6-dihydropyrrolo[3,4-c]pyrazol-4(1H)-one]	> 37	373	>10	36	81.4	0.1475
Cc1cc(N2C(=O)c3c(C4CC4)nn(C)c3C2c2ccc(Cl)cc2)cn2c(C(F)F)nnc12 (racemic) [Example 3, 6-(4-chlorophenyl)-3-cyclopropyl-5-(3-(difluoromethyl)-8-methyl-[1,2,4]triazolo[4,3-a]pyridin-6-yl)-1-methyl-5,6-dihydropyrrolo[3,4-c]pyrazol-4(1H)-one]	> 37	73.5	>10	8.27	12.4	0.02945
